# Measurements published in patent US20240110220A1, “DETECTING BETA-LACTAMASE ENZYME ACTIVITY” (COMMISSARIAT A L'ENERGIE ATOMIQUE ET AUX ENERGIES …, priority 2021, published 2024).
# Assay: Test strip by competition with hydrolysed cefotaxime added to the sample
# Type: binding
# Settings: signal equivalent to the control
# Experimental: The optimisation of these two parameters was carried out for the five antibodies selected. […] In parallel, hydrolysed cefotaxime was added in order to check that the antibody is indeed specific to the non-hydrolysed form.
# For all these three parameters, a colour intensity scale was used to evaluate the results obtained on the test strips. This scale was defined from 1 to 10, where each value is characteristic of an increasing signal intensity.
# 96-well microplates were used for all these tests. […] Then, a strip composed of a sample paper, a nitrocellulose membrane and an absorbent paper, were deposited in the wells. An incubation of 10 minutes was performed, then the signal intensity was evaluated with the colour intensity scale.
# A control was produced (condition at 0 ng/ml), in order to see the maximum signal that could be obtained on the TL (Table 4).
# By way of example, other antibodies have been tested. The conditions of use of the antibodies are as follows: Antibody 1, DO0.5, 0.3 mg/ml of BSA-cefotaxime; Antibody 2, DO1, 0.3 mg/ml of BSA-cefotaxime; Antibody 3, DO0.5, 0.1 mg/ml of BSA-cefotaxime; Antibody 4, DO0.5, 0.3 mg/ml of BSA-cefotaxime; Antibody 5, DO0.5, 0.3 mg/ml of BSA-cefotaxime (Table 5).
smiles,measurement,value
CO/N=C(\C(=O)N[C@H](C(=O)O)C1NC(C(=O)O)=C(COC(C)=O)CS1)c1csc(N)n1 (stereo partly shown) [hydrolysed cefotaxime],recognition by the tracer antibody,not recognised
